# Measured values published in patent US6355799B1, “Substituted benzene compounds, process for their preparation, and herbicidal and defoliant compositions containing them” (ISK Americas Incorporated, priority 1997, dated 2002).
# Assays:
# Assay type in all cases: in vivo
# [1] = system: upland rice (Oryza sp., var. Tebonnet, RICE); assay: Post-emerge test, crop safety; details: post-emerge, 14 days after application, rating scale 0-100
# In short: (§1)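 Fourteen days after spraying, crop and weed injury was graded visually from 0, no effect, to 100, every plant dead. Test substances were dissolved in acetone and applied at 15–1000 g ai/ha with a flat-fan nozzle. Application was either pre-emergence, one day after sowing, or post-emergence at the 2–3 leaf stage.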
# [2] = system: field corn (Zea mays L., var. Dekalb 535, CORN); assay: Post-emerge test, crop safety; details: post-emerge, 14 days after application, rating scale 0-100
# In short: as §1
# [3] = system: sicklepod (Cassia obtusifolia, CASOB); assay: Post-emerge test, greenhouse herbicide activity screening; details: post-emerge, 14 days after application, rating scale 0-100
# In short: (§2)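 Each test used a mechanized track sprayer delivering 187 l/ha of acetone solution at 15–1000 g ai/ha. Post-emerge foliage at 2–3 leaves was treated with added 0.25% v/v non-ionic surfactant and bottom-watered only. Injury was assessed on day 14, where 100 means total kill.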
# [4] = system: large crabgrass (Digitaria sanguinalis, DIGSA); assay: as above; details: post-emerge, 14 days after application, rating scale 0-100
# In short: as §2
# [5] = system: johnsongrass (Sorghum halepense, SORHA); assay: as above; details: post-emerge, 14 days after application, rating scale 0-100
# In short: as §2
# [6] = system: barnyardgrass (Echinochloa crus-galli, ECHCG); assay: as above; details: post-emerge, 14 days after application, rating scale 0-100
# In short: as §2
# [7] = system: velvetleaf (Abutilon theophrasti, ABUTH); assay: as above; details: post-emerge, 14 days after application, rating scale 0-100
# In short: as §2
# [8] = system: lambsquarters (Chenopodium album, CHEAL); assay: as above; details: post-emerge, 14 days after application, rating scale 0-100
# In short: as §2
# [9] = system: ivyleaf morningglory (Ipomoea hederacea, IPOHE); assay: as above; details: post-emerge, 14 days after application, rating scale 0-100
# In short: as §2
# [10] = system: green foxtail (Setaria viridis, SETVI); assay: as above; details: post-emerge, 14 days after application, rating scale 0-100
# In short: as §2
# [11] = system: common ragweed (Ambrosia artemisizfolia L., AMBEL); assay: as above; details: post-emerge, 14 days after application, rating scale 0-100
# In short: as §2
# [12] = system: redroot pigweed (Amaranthus retroflexus, AMARE); assay: as above; details: post-emerge, 14 days after application, rating scale 0-100
# In short: as §2
# [13] = system: redroot pigweed (Amaranthus retroflexus, AMARE); assay: Pre-emerge test, greenhouse herbicide activity screening; details: rated 14 days after application, 0 = no damage, 100 = complete death
# In short: (§3)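 Herbicidal damage is scored 0 (none) to 100 (complete plant death) two weeks after a simulated field spray. Rates span 15–1000 g ai/ha, delivered in acetone at 187 l/ha. For post-emergence treatments, plants have 2–3 leaves and the spray carries 0.25% v/v non-ionic surfactant.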
# [14] = system: sicklepod (Cassia obtusifolia, CASOB); assay: as above; details: rated 14 days after application, 0 = no damage, 100 = complete death
# In short: as §1
# [15] = system: large crabgrass (Digitaria sanguinalis, DIGSA); assay: as above; details: rated 14 days after application, 0 = no damage, 100 = complete death
# In short: as §1
# [16] = system: johnsongrass (Sorghum halepense, SORHA); assay: as above; details: rated 14 days after application, 0 = no damage, 100 = complete death
# In short: as §1
# [17] = system: barnyardgrass (Echinochloa crus-galli, ECHCG); assay: as above; details: rated 14 days after application, 0 = no damage, 100 = complete death
# In short: as §1
# [18] = system: velvetleaf (Abutilon theophrasti, ABUTH); assay: as above; details: rated 14 days after application, 0 = no damage, 100 = complete death
# In short: as §1
# [19] = system: lambsquarters (Chenopodium album, CHEAL); assay: as above; details: rated 14 days after application, 0 = no damage, 100 = complete death
# In short: as §1
# [20] = system: ivyleaf morningglory (Ipomoea hederacea, IPOHE); assay: as above; details: rated 14 days after application, 0 = no damage, 100 = complete death
# In short: as §1
# [21] = system: green foxtail (Setaria viridis, SETVI); assay: as above; details: rated 14 days after application, 0 = no damage, 100 = complete death
# In short: as §1
# [22] = system: common ragweed (Ambrosia artemisizfolia L., AMBEL); assay: as above; details: rated 14 days after application, 0 = no damage, 100 = complete death
# In short: as §1
# [23] = system: upland rice (Oryza sp., var. Tebonnet, RICE); assay: Pre-emerge test, crop safety; details: rated 14 days after application, 0 = no damage, 100 = complete death
# In short: as §3
# [24] = system: field corn (Zea mays L., var. Dekalb 535, CORN); assay: Pre-emerge test, crop safety; details: rated 14 days after application, 0 = no damage, 100 = complete death
# In short: as §3
smiles,measurement,setting,value
COc1c(Cl)cc(F)c(-n2c(=O)cc(C(F)(F)F)n(C)c2=O)c1NC(=O)c1ccc(CCl)cc1 [2-36],phytotoxicity rating RICE,[1]; 63 g ai/ha,25
same,phytotoxicity rating RICE,[1]; 250 g ai/ha,40
same,phytotoxicity rating CORN,[2]; 63 g ai/ha,10
same,phytotoxicity rating CORN,[2]; 250 g ai/ha,20
same,phytotoxicity rating CASOB,[3]; 63 g ai/ha,60
same,phytotoxicity rating CASOB,[3]; 250 g ai/ha,60
same,phytotoxicity rating DIGSA,[4]; 63 g ai/ha,20
same,phytotoxicity rating DIGSA,[4]; 250 g ai/ha,20
same,phytotoxicity rating SORHA,[5]; 63 g ai/ha,10
same,phytotoxicity rating SORHA,[5]; 250 g ai/ha,10
same,phytotoxicity rating ECHCG,[6]; 63 g ai/ha,10
same,phytotoxicity rating ECHCG,[6]; 250 g ai/ha,0
same,phytotoxicity rating ABUTH,[7]; 63 g ai/ha,100
same,phytotoxicity rating ABUTH,[7]; 250 g ai/ha,100
same,phytotoxicity rating CHEAL,[8]; 63 g ai/ha,95
same,phytotoxicity rating CHEAL,[8]; 250 g ai/ha,100
same,phytotoxicity rating IPOHE,[9]; 63 g ai/ha,100
same,phytotoxicity rating IPOHE,[9]; 250 g ai/ha,100
same,phytotoxicity rating SETVI,[10]; 63 g ai/ha,50
same,phytotoxicity rating SETVI,[10]; 250 g ai/ha,60
same,phytotoxicity rating AMBEL,[11]; 63 g ai/ha,80
same,phytotoxicity rating AMBEL,[11]; 250 g ai/ha,95
same,phytotoxicity rating AMARE,[12]; 63 g ai/ha,100
same,phytotoxicity rating AMARE,[12]; 250 g ai/ha,100
same,"Pre-emerge Herbicidal Activity, phytotoxicity rating (0-100), AMARE",[13]; 63 g ai/ha,100
same,"Pre-emerge Herbicidal Activity, phytotoxicity rating (0-100), AMARE",[13]; 250 g ai/ha,100
same,"Pre-emerge Herbicidal Activity, phytotoxicity rating (0-100), CASOB",[14]; 63 g ai/ha,10
same,"Pre-emerge Herbicidal Activity, phytotoxicity rating (0-100), CASOB",[14]; 250 g ai/ha,70
same,"Pre-emerge Herbicidal Activity, phytotoxicity rating (0-100), DIGSA",[15]; 63 g ai/ha,0
same,"Pre-emerge Herbicidal Activity, phytotoxicity rating (0-100), DIGSA",[15]; 250 g ai/ha,30
same,"Pre-emerge Herbicidal Activity, phytotoxicity rating (0-100), SORHA",[16]; 63 g ai/ha,0
same,"Pre-emerge Herbicidal Activity, phytotoxicity rating (0-100), SORHA",[16]; 250 g ai/ha,20
same,"Pre-emerge Herbicidal Activity, phytotoxicity rating (0-100), ECHCG",[17]; 63 g ai/ha,0
same,"Pre-emerge Herbicidal Activity, phytotoxicity rating (0-100), ECHCG",[17]; 250 g ai/ha,10
same,"Pre-emerge Herbicidal Activity, phytotoxicity rating (0-100), ABUTH",[18]; 63 g ai/ha,100
same,"Pre-emerge Herbicidal Activity, phytotoxicity rating (0-100), ABUTH",[18]; 250 g ai/ha,100
same,"Pre-emerge Herbicidal Activity, phytotoxicity rating (0-100), CHEAL",[19]; 63 g ai/ha,90
same,"Pre-emerge Herbicidal Activity, phytotoxicity rating (0-100), CHEAL",[19]; 250 g ai/ha,100
same,"Pre-emerge Herbicidal Activity, phytotoxicity rating (0-100), IPOHE",[20]; 63 g ai/ha,0
same,"Pre-emerge Herbicidal Activity, phytotoxicity rating (0-100), IPOHE",[20]; 250 g ai/ha,60
same,"Pre-emerge Herbicidal Activity, phytotoxicity rating (0-100), SETVI",[21]; 63 g ai/ha,25
same,"Pre-emerge Herbicidal Activity, phytotoxicity rating (0-100), SETVI",[21]; 250 g ai/ha,90
same,"Pre-emerge Herbicidal Activity, phytotoxicity rating (0-100), AMBEL",[22]; 63 g ai/ha,0
same,"Pre-emerge Herbicidal Activity, phytotoxicity rating (0-100), AMBEL",[22]; 250 g ai/ha,30
same,"Pre-emerge phytotoxicity rating (0-100), crop damage, RICE",[23]; 63 g ai/ha,0
same,"Pre-emerge phytotoxicity rating (0-100), crop damage, RICE",[23]; 250 g ai/ha,40
same,"Pre-emerge phytotoxicity rating (0-100), crop damage, CORN",[24]; 63 g ai/ha,0
same,"Pre-emerge phytotoxicity rating (0-100), crop damage, CORN",[24]; 250 g ai/ha,0
